Converted amounts (≈) assume the structure as drawn.
Experiments:
[1] = target: T1, FKBP12 (Aspergillus fumigatus, UniProt Q4WLV6); experiment: BLI, compound-mediated ternary complex formation, […] compound; assay type: binding
T1 construct: gene fpr1A; biotinylated (Avi-tagged) FKBP12; with CnA-CnB-calmodulin

[2] = target: T2, FKBP12 (Candida albicans, UniProt C4YFI3+C4YS24+P28870); experiment: as above; assay type: binding
T2 construct: gene RBP1; biotinylated (Avi-tagged) FKBP12; with CnA-CnB-calmodulin
T2 sequence (P28870 whole entry): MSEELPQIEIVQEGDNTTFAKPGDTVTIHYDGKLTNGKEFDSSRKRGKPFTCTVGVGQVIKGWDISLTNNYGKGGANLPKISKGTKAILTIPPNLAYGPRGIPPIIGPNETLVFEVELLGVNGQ
T2 sequence (C4YFI3 54-445): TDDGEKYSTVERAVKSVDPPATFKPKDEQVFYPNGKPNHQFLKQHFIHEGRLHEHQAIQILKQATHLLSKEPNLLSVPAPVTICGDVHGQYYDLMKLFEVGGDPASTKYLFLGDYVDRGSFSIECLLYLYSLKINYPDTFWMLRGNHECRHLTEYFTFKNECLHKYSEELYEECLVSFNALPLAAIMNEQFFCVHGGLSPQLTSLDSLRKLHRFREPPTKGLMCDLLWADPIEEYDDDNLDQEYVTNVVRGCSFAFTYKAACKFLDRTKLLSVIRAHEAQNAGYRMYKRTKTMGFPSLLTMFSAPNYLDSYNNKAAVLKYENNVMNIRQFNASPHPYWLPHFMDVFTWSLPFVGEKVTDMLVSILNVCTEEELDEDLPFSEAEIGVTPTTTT
T2 sequence (C4YS24 1-173): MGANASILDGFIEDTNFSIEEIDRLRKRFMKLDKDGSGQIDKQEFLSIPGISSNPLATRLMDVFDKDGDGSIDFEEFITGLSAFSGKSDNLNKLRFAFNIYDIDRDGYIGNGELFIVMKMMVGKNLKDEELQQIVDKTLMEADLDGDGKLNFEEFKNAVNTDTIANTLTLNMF
T2 sequence (P23286 whole entry partner): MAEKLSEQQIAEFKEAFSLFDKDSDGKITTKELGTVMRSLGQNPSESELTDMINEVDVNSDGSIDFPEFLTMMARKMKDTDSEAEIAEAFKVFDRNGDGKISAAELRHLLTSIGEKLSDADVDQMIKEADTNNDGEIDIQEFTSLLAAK

[3] = tested on: Aspergillus flavus; experiment: microbe, parasite or virus in culture; parameters: species or system Aspergillus fumigatus and other molds; modified CLSI M38-A2 broth microdilution in RPMI 1640, mold growth inhibition (MIC/MEC); conditions: Aspergillus flavus; MIC/MEC
Experimental: (§1) In vitro antifungal activities of FK506, FK520, and analogs were assessed in RPMI 1640 (Sigma-Aldrich) for all strains tested. MICs/minimum effective concentrations (MECs) for each drug were measured using modified Clinical and Laboratory Standards Institute (CLSI) M38-A2 and M27-A3 standard in vitro antifungal susceptibility protocols. Broth microdilution assays for MIC/MEC assessment were performed as described previously ([33]). All antifungal assays with C. neoformans were performed at 37°C. Antifungal susceptibility testing for C. albicans was performed in the presence of a uniform 1 μg/mL concentration of fluconazole to sensitize the organism to calcineurin inhibition. MICs/minimum effective concentrations (MECs) were determined for each of the novel analogs against the three major human fungal pathogens, A. fumigatus, C. neoformans, and C. albicans. […] Thus, analogs of FK506 and FK520 can tolerate up to 100-fold reduction in antifungal activity and still be considered for in vivo testing. For C. neoformans, MICs were the most uniform and ranged from 0.2 to 2 μg/mL, which is between 4- and 40-fold reduced for antifungal activity. C. albicans MICs ranged from 0.2 to 6.25 μg/mL, which is between 10- and 312.5-fold reduced for activity. Despite being one of the most difficult to treat fungal infections, all six analogs were active against A. fumigatus with MECs ranging from 1 to 2 μg/mL or a 62.5- to 125-fold reduction in activity. Two FK520 analogs, JH-FK-05 and JH-FK-07, maintained high levels of broad-spectrum antifungal activity across the three species, and JH-FK-07 had the lowest MICs for both C. neoformans and C. albicans. To assess the antifungal activity against other human fungal pathogens, we selected JH-FK-05 to test against a panel of pathogenic molds and drug-resistant A. fumigatus strains (Table S3). JH-FK-05 registered MECs as low as 1 μg/mL for some of these highly recalcitrant species, such as Mucor circinelloides, Rhizopus oryzae, and pan azole-resistant A. fumigatus (strain F14946).

[4] = tested on: T3, Aspergillus fumigatus (Wild-type) (akuBKu80); experiment: microbe, parasite or virus in culture; parameters: species or system Aspergillus fumigatus and other molds; modified CLSI M38-A2 broth microdilution in RPMI 1640, mold growth inhibition (MIC/MEC); conditions: MIC/MEC
T3 construct: akuBKu80
Experimental: as §1

[5] = tested on: T4, Aspergillus fumigatus F12776; experiment: microbe, parasite or virus in culture; parameters: species or system Aspergillus fumigatus and other molds; modified CLSI M38-A2 broth microdilution in RPMI 1640, mold growth inhibition (MIC/MEC); conditions: F12776, MIC/MEC, azole-resistant strain
T4 construct: F12776
Experimental: as §1

[6] = tested on: T5, Aspergillus fumigatus F14946; experiment: microbe, parasite or virus in culture; parameters: species or system Aspergillus fumigatus and other molds; modified CLSI M38-A2 broth microdilution in RPMI 1640, mold growth inhibition (MIC/MEC); conditions: F14946, MIC/MEC, azole-resistant strain
T5 construct: F14946
Experimental: as §1

[7] = tested on: T6, Aspergillus fumigatus F16216; experiment: microbe, parasite or virus in culture; parameters: species or system Aspergillus fumigatus and other molds; modified CLSI M38-A2 broth microdilution in RPMI 1640, mold growth inhibition (MIC/MEC); conditions: F16216, MIC/MEC, azole-resistant strain
T6 construct: F16216
Experimental: as §1

[8] = tested on: T7, Aspergillus fumigatus F16314; experiment: microbe, parasite or virus in culture; parameters: species or system Aspergillus fumigatus and other molds; modified CLSI M38-A2 broth microdilution in RPMI 1640, mold growth inhibition (MIC/MEC); conditions: F16314, MIC/MEC, azole-resistant strain
T7 construct: F16314
Experimental: as §1

[9] = tested on: T8, Aspergillus fumigatus F7075; experiment: microbe, parasite or virus in culture; parameters: species or system Aspergillus fumigatus and other molds; modified CLSI M38-A2 broth microdilution in RPMI 1640, mold growth inhibition (MIC/MEC); conditions: F7075, MIC/MEC, azole-resistant strain
T8 construct: F7075
Experimental: as §1

[10] = tested on: Aspergillus niger; experiment: microbe, parasite or virus in culture; parameters: species or system Aspergillus fumigatus and other molds; modified CLSI M38-A2 broth microdilution in RPMI 1640, mold growth inhibition (MIC/MEC); conditions: Aspergillus niger; MIC/MEC
Experimental: as §1

[11] = tested on: Aspergillus terreus; experiment: microbe, parasite or virus in culture; parameters: species or system Aspergillus fumigatus and other molds; modified CLSI M38-A2 broth microdilution in RPMI 1640, mold growth inhibition (MIC/MEC); conditions: Aspergillus terreus; MIC/MEC
Experimental: as §1

[12] = tested on: Mucor circinelloides; experiment: microbe, parasite or virus in culture; parameters: species or system Aspergillus fumigatus and other molds; modified CLSI M38-A2 broth microdilution in RPMI 1640, mold growth inhibition (MIC/MEC); conditions: Mucor circinelloides; MIC/MEC
Experimental: as §1

[13] = tested on: Paecilomyces variotti; experiment: microbe, parasite or virus in culture; parameters: species or system Aspergillus fumigatus and other molds; modified CLSI M38-A2 broth microdilution in RPMI 1640, mold growth inhibition (MIC/MEC); conditions: Paecilomyces; MIC/MEC
Experimental: as §1

[14] = tested on: Rhizomucor pusilus; experiment: microbe, parasite or virus in culture; parameters: species or system Aspergillus fumigatus and other molds; modified CLSI M38-A2 broth microdilution in RPMI 1640, mold growth inhibition (MIC/MEC); conditions: Rhizomucor; MIC/MEC
Experimental: as §1

[15] = tested on: Rhizopus oryzae; experiment: microbe, parasite or virus in culture; parameters: species or system Aspergillus fumigatus and other molds; modified CLSI M38-A2 broth microdilution in RPMI 1640, mold growth inhibition (MIC/MEC); conditions: Rhizopus arrhizus; MIC/MEC
Experimental: as §1

[16] = tested on: Scedosporium apiospermum; experiment: microbe, parasite or virus in culture; parameters: species or system Aspergillus fumigatus and other molds; modified CLSI M38-A2 broth microdilution in RPMI 1640, mold growth inhibition (MIC/MEC); conditions: Scedosporium apiospermum; MIC/MEC
Experimental: as §1

[17] = tested on: Scedosporium prolificans; experiment: microbe, parasite or virus in culture; parameters: species or system Aspergillus fumigatus and other molds; modified CLSI M38-A2 broth microdilution in RPMI 1640, mold growth inhibition (MIC/MEC); conditions: Lomentospora prolificans; MIC/MEC
Experimental: as §1

[18] = tested on: T9, Cryptococcus neoformans (H99); experiment: microbe, parasite or virus in culture; parameters: CLSI M27-A3 broth microdilution in RPMI 1640 at 37 C, growth inhibition of C. neoformans (MIC); conditions: Cryptococcus neoformans, read-out: MIC (μg/mL) against: / Cryptococcus neoformans (H99)^a
T9 construct: H99
Experimental: as §1, with “activity.” for “activity. Two FK520 analogs, JH-FK-05 and JH-FK-07, maintained high levels of broad-spectrum antifungal activity across the three species, and JH-FK-07 had the lowest MICs for both C. neoformans and C. albicans. To assess the antifungal activity against other human fungal pathogens, we selected JH-FK-05 to test against a panel of pathogenic molds and drug-resistant A. fumigatus strains (Table S3). JH-FK-05 registered MECs as low as 1 μg/mL for some of these highly recalcitrant species, such as Mucor circinelloides, Rhizopus oryzae, and pan azole-resistant A. fumigatus (strain F14946).”

T1 sequence (Q4WLV6 whole entry): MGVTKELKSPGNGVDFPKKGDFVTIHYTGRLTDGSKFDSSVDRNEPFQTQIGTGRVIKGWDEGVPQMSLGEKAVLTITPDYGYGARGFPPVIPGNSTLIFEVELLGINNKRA
T1 sequence (Q4WUR1 whole entry partner): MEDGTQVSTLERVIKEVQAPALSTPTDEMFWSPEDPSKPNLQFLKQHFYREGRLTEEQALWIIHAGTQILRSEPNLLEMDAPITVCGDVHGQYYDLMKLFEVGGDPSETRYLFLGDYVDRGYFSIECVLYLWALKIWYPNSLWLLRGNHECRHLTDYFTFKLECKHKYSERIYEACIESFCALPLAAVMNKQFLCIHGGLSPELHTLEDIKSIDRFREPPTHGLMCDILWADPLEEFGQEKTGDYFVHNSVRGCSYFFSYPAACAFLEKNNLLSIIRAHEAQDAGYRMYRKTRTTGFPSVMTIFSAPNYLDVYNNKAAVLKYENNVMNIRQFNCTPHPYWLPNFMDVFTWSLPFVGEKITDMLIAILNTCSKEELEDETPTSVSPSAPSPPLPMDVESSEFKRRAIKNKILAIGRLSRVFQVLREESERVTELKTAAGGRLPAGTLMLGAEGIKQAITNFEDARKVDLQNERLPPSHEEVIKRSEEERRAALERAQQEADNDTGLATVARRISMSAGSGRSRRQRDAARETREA

SMILES	BLI, compound-mediated ternary complex formation, 10 μM compound [1]	BLI, compound-mediated ternary complex formation, 10 μM compound [2]	MIC [3] [µg/mL]	MIC [4] [µg/mL]	MIC [5] [µg/mL]	MIC [6] [µg/mL]	MIC [7] [µg/mL]	MIC [8] [µg/mL]	MIC [9] [µg/mL]	MIC [10] [µg/mL]	MIC [11] [µg/mL]	MIC [12] [µg/mL]	MIC [13] [µg/mL]	MIC [14] [µg/mL]	MIC [15] [µg/mL]	MIC [16] [µg/mL]	MIC [17] [µg/mL]	MIC [18] [µg/mL]
CC[C@@H]1/C=C(\C)C[C@H](C)C[C@H](OC)[C@H]2O[C@@](O)(C(=O)C(=O)N3CCCC[C@H]3C(=O)O[C@H](/C(C)=C/[C@@H]3CC[C@@H](O)[C@H](OC)C3)[C@H](C)[C@@H](O)C/C1=N/NC(C)=O)[C@H](C)C[C@@H]2OC [JH-FK-05]	target complexes form in the presence of the analogs with affinities similar to those of the parent compounds	target complexes form in the presence of the analogs with affinities similar to those of the parent compounds	1 (≈ 1.18 µM)	1 (≈ 1.18 µM)	2 (≈ 2.36 µM)	1 (≈ 1.18 µM)	1 (≈ 1.18 µM)	1 (≈ 1.18 µM)	2 (≈ 2.36 µM)	< 1	1 (≈ 1.18 µM)	1 (≈ 1.18 µM)	> 8	> 8	1 (≈ 1.18 µM)	> 8	> 8	1 (≈ 1.18 µM)
C=CC[C@@H]1/C=C(\C)C[C@H](C)C[C@H](OC)[C@H]2O[C@@](O)(C(=O)C(=O)N3CCCC[C@H]3C(=O)O[C@H](/C(C)=C/[C@@H]3CC[C@@H](O)[C@H](OC)C3)[C@H](C)[C@@H](O)C/C1=N/NC(C)=O)[C@H](C)C[C@@H]2OC [JH-FK-01, APX879]																		1 (≈ 1.16 µM)
C=CC[C@@H]1/C=C(\C)C[C@H](C)C[C@H](OC)[C@H]2O[C@@](O)(C(=O)C(=O)N3CCCC[C@H]3C(=O)O[C@H](/C(C)=C/[C@@H]3CC[C@@H](O)[C@H](OC)C3)[C@H](C)[C@@H](O)C/C1=N/NC(=O)CC)[C@H](C)C[C@@H]2OC [JH-FK-02]	target complexes form in the presence of the analogs with affinities similar to those of the parent compounds	target complexes form in the presence of the analogs with affinities similar to those of the parent compounds																2 (≈ 2.29 µM)

— paper PMC9239059, “Structure-Guided Synthesis of FK506 and FK520 Analogs with Increased Selectivity Exhibit In Vivo Therapeutic Efficacy against Cryptococcus” (mBio, 2022)
